Test results: patent publication EP2698385A1, “Detection of synthetic cannabinoids” (priority 2012, dated 2014)
Where a name gives a salt, the structure may show the parent alone. Read-outs that look alike come from different tables or passages of the source.

Legend:
Format in all cases: binding, sheep
[1] = system: Antibody to Immunogen I; settings: Cross-reactants at 100 ng/ml; Antibody to Immunogen I
Experimental: (§1) An aqueous solution of each immunogen was formulated with Freund's Complete Adjuvant (FCA) to form an emulsion consisting of 2mg/ml* immunogen in 50% (v/v) FCA. Three sheep were immunised with this emulsion (1° immunisation), 0.25ml being intramuscularly injected at each of four sites in the flank of each animal. Subsequent immunizations (boosts) contained 1mg/ml* immunogen. All boosts were emulsified in 50% (v/v) Freund's Incomplete Adjuvant (FIA) and were administered in the same manner as the 1° immunisation, at monthly intervals. Blood sampling took place 7 to 14 days after each boost. *The general procedure for immunogen administration is outlined above, however, it was necessary to deviate from this protocol in some cases, due to reduced immunogen concentrations (Immunogens II, IV, VII and VIII) and/or amount available (Immunogen VIII). Any deviations from the protocol described are outlined in Table 1A below and highlighted in bold. Table 1A: Amount and volume of immunogens administered for primary and subsequent boosts
(§2) The wells of an enhanced binding 96 well polystyrene microtiter plate were coated with IgG fraction of antiserum raised to Immunogen I or II, diluted in 10mM Tris, pH8.5 (125µl/well). The appropriate antibody coating dilution was determined using standard ELISA checkerboard techniques. The plate was incubated overnight at 4°C, washed 4 times over 10 minutes with Tris buffered saline containing Tween 20 (TBST) and tapped dry. Standard solutions (JWH-018 for Immunogens I and II) were applied at 0, 0.625, 1.25, 2.5, 5, 10, 20 and 40ng/ml and 50µl of each was added to the appropriate wells. 75µl of conjugate (appropriate hapten-HRP) diluted in Tris buffer (pH 7.2) containing EDTA, D-mannitol, sucrose, thimerosal and BSA, was added to each of the wells. The appropriate dilution of conjugate was also determined using standard ELISA checkerboard techniques. The plate was incubated at 25°C for 1 hour. Excess unbound conjugate was removed by washing 6 times over a 10 minute period with TBST. 125µl of tetramethylbenzidine (TMB) substrate solution was added to each well of the plate that was then incubated for 20 minutes in the dark at room temperature. The reaction was terminated by addition of 125µl 0.2M H2SO4 to each well. The absorbance was then measured at 450nm using a microtiter plate reader. The data are inputted to a computer program called 'KC Junior'. It is a 4 parameter fit curve and allow the calculatation of concentrations between the standard runs. This program is used to calculate the IC50s by dividing the 0ng/ml OD value by 2 and obtaining the concentration value from the curve for this OD.
In a similar manner to that described above, the wells of a 96-well microtiter plate were coated with the IgG fraction of the antiserum raised to Immunogens I or II. Standard solutions (JWH-018 for Immunogen I and II) were applied at 0, 0.625, 1.25, 2.5, 5, 10, 20 and 40ng/ml and conjugate was employed as detection reagent.
(§3) The data set our in Tables 3 and 4 are generated using antibodies raised against the indicated Immunogens in a competitive binding assay with the indicated tracers, using the indicated standards: Table 2
(§4) A450 = absorbance at 450nm B = absorbance at 450nm at xng/ml standard concentration B0 = absorbance at 450nm at 0ng/ml standard concentration IC50 = standard concentration which produces 50% B/B0
(§5) In order to determine the specificity of the competitive ELISAs, standard solutions of a range of structurally similar synthetic cannabinoids and their metabolites were prepared in TBST. Using the calibration curves generated and employing a single level of cross reactants, these were used to determine the cross-reactivity of each immunoassay with these substances. […]

[2] = system: Antibody to Immunogen VII
Experimental: as §1, §2
(§6) In a similar manner to that described above, the wells of a 96-well microtiter plate were coated with the IgG fraction of the antiserum raised to Immunogens IV, VII or VIII. Standard solutions (JWH-018 for Immunogens IV and VIII, JWH-015 for Immunogen VII) were prepared in TBST at 0, 1.25, 2.5, 5, 10, 20, 40 and 80ng/ml and conjugate was employed as detection reagent.
as §3, §4, §5

[3] = system: Antibody to Immunogen IV
Experimental: as §1, §2, §6, §3, §4, §5

[4] = system: Antibody to Immunogen VIII
Experimental: as §1, §2, §6, §3, §4, §5

[5] = Cross-reactants at 100 ng/ml, Antibody to Immunogen VII
[6] = Cross-reactants at 100 ng/ml, Antibody to Immunogen IV
[7] = Cross-reactants at 100 ng/ml, Antibody to Immunogen VIII

Row | Compound | %B/B0 [1] [%] | %B/B0 [2, 5] [%] | %B/B0 [3, 6] [%] | %B/B0 [4, 7] [%] | %B/B0 [2] [%] | %B/B0 [3] [%] | %B/B0 [4] [%]
1 | CCCCn1c(O)c(C(=O)c2cccc3ccccc23)c2ccccc21 [JWH-073 2-hydroxyindole metabolite] | 89.62 | 92.65 | 89.63 | 93.42 | – | – | –
2 | CCCCCn1cc(C(=O)Cc2cccc(OC)c2)c2ccccc21 [JWH-302] | 84.66 | 104.92 | 45.67 | 7.97 | – | – | –
3 | CS(=O)(=O)O.Cc1c(C(=O)c2cccc3ccccc23)c2cccc3c2n1[C@@H](CN1CCOCC1)CO3 [Win 55,212-3 mesylate, Win 55,212-3] | 34.00 | 32.31 | 94.57 | 101.30 | – | – | –
4 | COc1ccc(C(=O)c2cn(CCCC(C)O)c3ccccc23)cc1 (stereo not shown) [RCS-4 N-(4-hydroxypentyl) metabolite] | 65.71 | 95.72 | 59.16 | 8.89 | – | – | –
5 | COc1ccc(C(=O)c2cn(CCCCCO)c3ccccc23)c2ccccc12 [JWH-081 N-(5-hydroxypentyl) metabolite] | 61.86 | 89.31 | 26.31 | 47.16 | – | – | –
6 | CCCCCn1cc(C(=O)c2ccc(OC)cc2)c2ccccc21 [RCS-4] | 80.46 | 93.51 | 19.21 | 5.93 | – | – | –
7 | COc1ccccc1CC(=O)c1cn(CCC2CCCCC2)c2ccccc12 [RCS-8 (SR-18), RCS-8] | 82.65 | 94.57 | 85.50 | 88.79 | – | – | –
8 | CCCCCCCC(C)(C)c1ccc([C@H]2CCC[C@@H](O)C2)c(O)c1 [CP-49,497-C8-homologue] | 101.11 | 98.55 | 94.66 | 104.88 | – | – | –
9 | (-)-11-nor-9-Carboxy-delta9-THC | – | – | – | – | 98.72 | 93.08 | 103.36
10 | CCCCn1cc(C(=O)c2ccc(OC)cc2)c2ccccc21 [RCS-4-C4 homologue] | 76.27 | 100.20 | 27.17 | 9.54 | – | – | –
11 | JWH-081 2-methoxynaphthyl isomer [JWH-081 2-methoxynaphthyl isomer or (JWH-267)] | 69.58 | 83.43 | 27.67 | 58.20 | – | – | –
12 | NCCc1c[nH]c2ccc(O)cc12 [Serotonin HCl] | – | 99.83 | 95.40 | 100.36 | – | – | –
13 | JWH 203 3-chloro isomer [JWH 203 3-chloro isomer (JWH-237)] | 95.59 | 97.42 | 55.09 | 10.34 | – | – | –
14 | CCCCCn1cc(C(=O)c2cccc(OC)c2)c2ccccc21 [RCS-4 3-methoxy isomer] | 31.19 | 94.72 | 25.65 | 10.95 | – | – | –
15 | CCCCCn1cc(C(=O)c2ccc(CC)c3ccccc23)c2cc(O)ccc21 [JWH-210 5-hydroxyindole metabolite] | 83.29 | 100.43 | 48.91 | 87.72 | – | – | –
